Data from ChEMBL document CHEMBL1201861, “Genomics of Drug Sensitity in Cancer screening data, Wellcome Trust Sanger Institute”.

Columns and labels:
Caov-3 cell line = test: cells; format: functional, cell-based; details: Homo sapiens;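 also: cell growth inhibition read out by a viability assay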
Description: SANGER: Inhibition of human Caov-3 cell growth in a cell viability assay.

DG-75 = test: cells; format: functional, cell-based; details: Homo sapiens;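 also: growth inhibition of DG-75 cells, read out with a cell viability assay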
Description: SANGER: Inhibition of human DG-75 cell growth in a cell viability assay.

DMS-53 = test: cells; format: functional, cell-based, Homo sapiens; details: Homo sapiens, DMS-53;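 also: cell viability assay measuring growth inhibition of human DMS-53 cells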
Description: SANGER: Inhibition of human DMS-53 cell growth in a cell viability assay.

DV-90 = test: cells; format: functional, cell-based; details: Homo sapiens;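 also: Read-out is a viability assay, with IC50 reflecting the drop in DV-90 cell growth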
Description: SANGER: Inhibition of human DV-90 cell growth in a cell viability assay.

Daudi = test: cells; format: functional, cell-based; details: Homo sapiens;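 also: growth inhibition of Daudi cells, read out by a viability assay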
Description: SANGER: Inhibition of human Daudi cell growth in a cell viability assay.

ECC4 = test: cells; format: functional, cell-based; details: Homo sapiens;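 also: growth inhibition of ECC4 cells, read out with a cell viability assay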
Description: SANGER: Inhibition of human ECC4 cell growth in a cell viability assay.

EHEB = test: cells; format: functional, cell-based; details: Homo sapiens;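 also: growth inhibition of human EHEB cells, read out with a cell viability assay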
Description: SANGER: Inhibition of human EHEB cell growth in a cell viability assay.

EVSA-T = test: cells; format: functional, cell-based, Homo sapiens; details: Homo sapiens, EVSA-T;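 also: growth inhibition of EVSA-T cells, read out with a cell viability assay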
Description: SANGER: Inhibition of human EVSA-T cell growth in a cell viability assay.

EW-7 = test: SANGER: Inhibition of human EW-7 cell growth in a cell viability assay.; format: functional, cell-based; details: Homo sapiens, EW-7
G-361 = test: cells; format: functional, cell-based, Homo sapiens; details: Homo sapiens, G-361
GDM-1 = test: cells; format: functional, cell-based; details: Homo sapiens;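 also: cell viability readout used to measure growth inhibition of human GDM-1 cells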
Description: SANGER: Inhibition of human GDM-1 cell growth in a cell viability assay.

HCC1143 = test: cells; format: functional, cell-based; details: Homo sapiens;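 also: growth inhibition of human HCC1143 cells, read out with a cell viability assay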
Description: SANGER: Inhibition of human HCC1143 cell growth in a cell viability assay.

HCT-15 = test: cells; format: functional, cell-based, Homo sapiens; details: Homo sapiens, HCT-15;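 also: cell viability readout, IC50 reflecting suppression of HCT-15 cell growth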
Description: SANGER: Inhibition of human HCT-15 cell growth in a cell viability assay.

HT55 = test: cells; format: functional, cell-based, Homo sapiens; details: Homo sapiens, HT55;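 also: cell viability readout measuring growth inhibition of human HT55 cells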
Description: SANGER: Inhibition of human HT55 cell growth in a cell viability assay.

IPC-298 = test: SANGER: Inhibition of human IPC-298 cell growth in a cell viability assay.; format: functional, cell-based
Kasumi 1 = test: cells; format: functional, cell-based; details: Homo sapiens;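 also: growth inhibition of human Kasumi-1 cells, read out by a cell viability assay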
Description: SANGER: Inhibition of human KASUMI-1 cell growth in a cell viability assay.

KMS-12-PE = test: cells; format: functional, cell-based; details: Homo sapiens;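 also: growth inhibition of human KMS-12-PE cells, measured with a cell viability assay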
Description: SANGER: Inhibition of human KMS-12-PE cell growth in a cell viability assay.

LC4-1 = test: cells; format: functional, cell-based; details: Homo sapiens;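 also: growth inhibition of LC4-1 cells, read out with a cell viability assay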
Description: SANGER: Inhibition of human LC4-1 cell growth in a cell viability assay.

LP-1 = test: cells; format: functional, cell-based; details: Homo sapiens;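 also: growth inhibition of human LP-1 cells, with the read-out taken from a cell viability assay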
Description: SANGER: Inhibition of human LP-1 cell growth in a cell viability assay.

MC-CAR = test: cells; format: functional, cell-based; details: Homo sapiens;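 also: growth inhibition of the human MC-CAR cell line, read out by a cell viability assay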
Description: SANGER: Inhibition of human MC-CAR cell growth in a cell viability assay.

MDA-MB-134-VI = test: cells; format: functional, cell-based; details: Homo sapiens
Description: SANGER: Inhibition of human MDA-MB-134-VI cell growth in a cell viability assay.

MEL-JUSO = test: cells; format: functional, cell-based, Homo sapiens; details: Homo sapiens, MEL-JUSO;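 also: growth inhibition of human MEL-JUSO cells, read out with a cell viability assay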
Description: SANGER: Inhibition of human MEL-JUSO cell growth in a cell viability assay.

MES-SA = test: cells; format: functional, cell-based, Homo sapiens; details: Homo sapiens, MES-SA;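 also: growth inhibition of human MES-SA cells, read out with a cell viability assay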
Description: SANGER: Inhibition of human MES-SA cell growth in a cell viability assay.

MFE-296 = test: SANGER: Inhibition of human MFE-296 cell growth in a cell viability assay.; format: functional, cell-based
MHH-CALL-2 = test: cells; format: functional, cell-based; details: Homo sapiens;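 also: growth inhibition of the cell line, read out in a cell viability assay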
Description: SANGER: Inhibition of human MHH-CALL-2 cell growth in a cell viability assay.

NCI-H1618 = test: cells; format: functional, cell-based; details: Homo sapiens;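 also: growth inhibition of human NCI-H1618 cells, measured by a cell viability assay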
Description: SANGER: Inhibition of human NCI-H1618 cell growth in a cell viability assay.

NCI-H1703 = test: cells; format: functional, cell-based, Homo sapiens; details: Homo sapiens, NCI-H1703;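 also: growth inhibition of NCI-H1703 cells, read out via a cell viability assay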
Description: SANGER: Inhibition of human NCI-H1703 cell growth in a cell viability assay.

NCI-H1734 = test: cells; format: functional, cell-based; details: Homo sapiens;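 also: growth inhibition of human NCI-H1734 cells, read out with a cell viability assay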
Description: SANGER: Inhibition of human NCI-H1734 cell growth in a cell viability assay.

NCI-H2081 = test: cells; format: functional, cell-based; details: Homo sapiens;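 also: growth inhibition of human NCI-H2081 cells, read out with a cell viability assay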
Description: SANGER: Inhibition of human NCI-H2081 cell growth in a cell viability assay.

NCI-H460 = test: cells; format: functional, cell-based, Homo sapiens; details: Homo sapiens, NCI-H460;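 also: cell viability assay scoring growth inhibition of human NCI-H460 cells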
Description: SANGER: Inhibition of human NCI-H460 cell growth in a cell viability assay.

NCI-H630 = test: cells; format: functional, cell-based, Homo sapiens; details: Homo sapiens, NCI-H630;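 also: growth inhibition of NCI-H630 cells, read out with a cell viability assay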
Description: SANGER: Inhibition of human NCI-H630 cell growth in a cell viability assay.

NCI-H838 = test: cells; format: functional, cell-based; details: Homo sapiens;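 also: growth inhibition of human NCI-H838 cells, read out by a cell viability assay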
Description: SANGER: Inhibition of human NCI-H838 cell growth in a cell viability assay.

OPM-2 = test: cells; format: functional, cell-based; details: Homo sapiens;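 also: growth of OPM-2 cells measured with a viability assay, IC50 for suppression of proliferation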
Description: SANGER: Inhibition of human OPM-2 cell growth in a cell viability assay.

PLC-PRF-5 = test: cells; format: functional, cell-based; details: Homo sapiens;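 also: growth inhibition of human PLC-PRF-5 cells, read out with a viability assay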
Description: SANGER: Inhibition of human PLC-PRF-5 cell growth in a cell viability assay.

RL = test: cells; format: functional, cell-based; details: Homo sapiens
Description: SANGER: Inhibition of human RL cell growth in a cell viability assay.

RT-4 = test: SANGER: Inhibition of human RT4 cell growth in a cell viability assay.; format: functional, cell-based; details: Homo sapiens, RT-4
Raji = test: cells; format: functional, cell-based; details: Homo sapiens;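 also: cell viability assay measuring inhibition of Raji cell growth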
Description: SANGER: Inhibition of human Raji cell growth in a cell viability assay.

SK-CO-1 = test: cells; format: functional, cell-based; details: Homo sapiens;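 also: growth inhibition of SK-CO-1 cells, determined by a viability readout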
Description: SANGER: Inhibition of human SK-CO-1 cell growth in a cell viability assay.

SNG-M = test: cells; format: functional, cell-based; details: Homo sapiens
Description: SANGER: Inhibition of human SNG-M cell growth in a cell viability assay.

SNU-475 = test: cells; format: functional, cell-based; details: Homo sapiens
Description: SANGER: Inhibition of human SNU-475 cell growth in a cell viability assay.

ST486 = test: SANGER: Inhibition of human ST486 cell growth in a cell viability assay.; format: functional, cell-based
BL-70 = test: SANGER: Inhibition of human BL-70 cell growth in a cell viability assay.; format: functional, cell-based
BOKU = test: cells; format: functional, cell-based; details: Homo sapiens;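 also: growth inhibition of the human BOKU cell line, read out by a cell viability assay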
Description: SANGER: Inhibition of human BOKU cell growth in a cell viability assay.

TT = test: cells; format: functional, cell-based; details: Homo sapiens
Description: SANGER: Inhibition of human TT cell growth in a cell viability assay.

TUR = test: cells; format: functional, cell-based; details: Homo sapiens;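 also: growth inhibition of human TUR cells, read out with a cell viability assay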
Description: SANGER: Inhibition of human TUR cell growth in a cell viability assay.

YT = test: cells; format: functional, cell-based; details: Homo sapiens
Description: SANGER: Inhibition of human YT cell growth in a cell viability assay.

CCF-STTG1 = test: cells; format: functional, cell-based; details: Homo sapiens;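 also: growth inhibition of human CCF-STTG1 cells, determined with a cell viability read-out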
Description: SANGER: Inhibition of human CCF-STTG1 cell growth in a cell viability assay.

COC(=O)CNC(=O)C(=O)OC
IC50 (Caov-3 cell line): 1080 µM
IC50 (DG-75): 1050 µM
IC50 (DMS-53): 181 µM
IC50 (DV-90): > 4000 µM
IC50 (Daudi): 68.3 µM
IC50 (ECC4): 3580 µM
IC50 (EHEB): 271 µM
IC50 (EVSA-T): > 4000 µM
IC50 (EW-7): 729 µM
IC50 (G-361): 1180 µM
IC50 (GDM-1): 121 µM
IC50 (HCC1143): > 4000 µM
IC50 (HCT-15): 1820 µM
IC50 (HT55): 554 µM
IC50 (IPC-298): 1670 µM
IC50 (Kasumi 1): 122 µM
IC50 (KMS-12-PE): 628 µM
IC50 (LC4-1): 99.8 µM
IC50 (LP-1): 190 µM
IC50 (MC-CAR): 509 µM
IC50 (MDA-MB-134-VI): > 4000 µM
IC50 (MEL-JUSO): 275 µM
IC50 (MES-SA): 1070 µM
IC50 (MFE-296): 318 µM
IC50 (MHH-CALL-2): 173 µM
IC50 (NCI-H1618): > 4000 µM
IC50 (NCI-H1703): 1660 µM
IC50 (NCI-H1734): > 4000 µM
IC50 (NCI-H2081): 1010 µM
IC50 (NCI-H460): 159 µM
IC50 (NCI-H630): 3880 µM
IC50 (NCI-H838): 1340 µM
IC50 (OPM-2): 28.8 µM
IC50 (PLC-PRF-5): 1190 µM
IC50 (RL): 601 µM
IC50 (RT-4): 649 µM
IC50 (Raji): 609 µM
IC50 (SK-CO-1): > 4000 µM
IC50 (SNG-M): > 4000 µM
IC50 (SNU-475): 2580 µM
IC50 (ST486): 71 µM
IC50 (BL-70): 15.9 µM
IC50 (BOKU): 177 µM
IC50 (TT): 538 µM
IC50 (TUR): 171 µM
IC50 (YT): 23.4 µM
IC50 (CCF-STTG1): > 4000 µM

CCC1=C[C@@H]2CN(C1)Cc1c([nH]c3ccccc13)[C@@](C(=O)OC)(c1cc3c(cc1OC)N(C)[C@H]1[C@@](O)(C(=O)OC)[C@H](OC(C)=O)[C@]4(CC)C=CCN5CC[C@]31[C@@H]54)C2 [VINORELBINE]
IC50 (Caov-3 cell line): > 0.064 µM
IC50 (DG-75): > 0.064 µM
IC50 (DMS-53): > 0.064 µM
IC50 (DV-90): 0.0345 µM
IC50 (Daudi): > 0.064 µM
IC50 (ECC4): > 0.064 µM
IC50 (EHEB): > 0.064 µM
IC50 (EVSA-T): > 0.064 µM
IC50 (EW-7): 0.0167 µM
IC50 (G-361): 0.00353 µM
IC50 (GDM-1): 0.0246 µM
IC50 (HCC1143): > 0.064 µM
IC50 (HCT-15): > 0.064 µM
IC50 (HT55): > 0.064 µM
IC50 (IPC-298): 0.0366 µM
IC50 (Kasumi 1): 0.0177 µM
IC50 (KMS-12-PE): 0.0601 µM
IC50 (LC4-1): 0.00719 µM
IC50 (LP-1): > 0.064 µM
IC50 (MC-CAR): 0.00927 µM
IC50 (MDA-MB-134-VI): > 0.064 µM
IC50 (MEL-JUSO): 0.00426 µM
IC50 (MES-SA): 0.00311 µM
IC50 (MFE-296): 0.00599 µM
IC50 (MHH-CALL-2): > 0.064 µM
IC50 (NCI-H1618): > 0.064 µM
IC50 (NCI-H1703): 0.00283 µM
IC50 (NCI-H1734): 0.0141 µM
IC50 (NCI-H2081): 0.0336 µM
IC50 (NCI-H460): 0.00698 µM
IC50 (NCI-H630): 0.0455 µM
IC50 (NCI-H838): 0.016 µM
IC50 (OPM-2): 0.00627 µM
IC50 (PLC-PRF-5): > 0.064 µM
IC50 (RL): > 0.064 µM
IC50 (RT-4): > 0.064 µM
IC50 (Raji): > 0.064 µM
IC50 (SK-CO-1): 0.0085 µM
IC50 (SNG-M): 0.00388 µM
IC50 (SNU-475): > 0.064 µM
IC50 (ST486): 0.00296 µM
IC50 (BL-70): 0.00316 µM
IC50 (BOKU): > 0.064 µM
IC50 (TT): > 0.064 µM
IC50 (TUR): 0.0072 µM
IC50 (YT): > 0.064 µM
IC50 (CCF-STTG1): 0.00837 µM
